These results are taken from patent US4000297A, “N-p-chlorobenzoyl tryptophane, salts and compositions thereof” (priority 1971, dated 1976).

For data set [1], the system named is gastric lesions from Indomethacin. Briefly: Protective activity against gastric lesions due to Indomethacin. The data set is classed as in vivo, rats. As to conditions: oral; for Protective activity ED50 / ED50: Indomethacin 16 mg/kg orally; for Protective activity ED50: 240 min; for ED50: Rattus norvegicus, po, 4 h, read-out: Protective activity ED50. As to the method:
The activity is defined as the dose in mg/kg of body weight to the animal, which prevents in 50% of the treated subjects arising of lesions due to Indomenthacin.
The protective preparations are administered orally in aqueous suspension.

For data set [2], the system named is transit through the stomach and intestine. The data set can be described thus: Anti-spastic activity, vegetable carbon (charcoal) test, rate of transit through the stomach and intestine. In kind it is in vivo, mice. The conditions noted are these: for Antispastic activity ED50: 120 min; for ED50: Mus musculus, 2 h; for Ratio 3/2: anti-secretive ED50 / anti-spastic ED50 (Table 3). As for the experimental part: Particularly marked is the anti-spastic activity which the present compounds exercise on the entire digestive system. Measured in the mouse, using the vegetable carbon test (rate of transit through the stomach and intestine), this activity is in some cases comparatively greater than the anti-secretive activity (Table 3).
(*)The antispastic activity is measured in mice of an average weight of […]
± 3 g by administering a suspension of charcoal in gum arabic and
checking after two hours whether the charcoal has reached the initial
portion of the colon. In non-treated subjects the charcoal reaches this
transit of the charcoal. Evaluation of the results is effected as
ED50 in mg/kg body weight of the animal, i.e., the dose at which the […]

The test system of data set [3] is gastric secretion. The data set can be described thus: Comparison of antisecretive activity, rats with tied pylorus, oral aqueous suspension. The data set is classed as in vivo. The conditions noted are these: oral; for ED50: Rattus norvegicus, po, read-out: Antisecretive activity (dose which reduces the gastric secretion by 50%). As for the experimental part:
(*)The antisecretive activity is defined as the dose in mg/kg of body
weight of the animal, which reduces the gastric secretion by 50%. The
evaluation is effected by considering the decrease in quantity of secrete
gastric juice as compared with controls. Rats of an average weight of 200
± 20 grams are employed of which the lower part of the stomach at the
level of the pylorus is tied to collect the gastric juice during the
indicated periods. The preparations are administered orally in the form o

Data set [4] can be described thus: Solubility. The data set is classed as physicochemical.
Data set [5] concerns gastric secretion. Briefly: Anti-secretive activity in the rat by gastric stimulus, oral. In kind it is in vivo. As to conditions: oral (Table 1), read-out: Activity B: anti-secretive activity ED50.
Description: *3 Anti-secretive activity in the rat by gastric stimulus, ED50 mg/k
The nature of data set [6]: Acute toxicity (DL50) in the mouse. In kind it is in vivo. The conditions noted are these: in vivo, iv (Table 1), read-out: DL50 value. An excerpt: *1 DL50 in the mouse mg/kg iv.
Examples of differences between toxicity (DL50 in
the mouse) by intravenous administration and oral
administration in mg/kg. Variation in therapeutic

Data set [7] deals with gastric secretion. The data set can be described thus: Anti-secretive activity in the rat with lig. pylorus, iv. The data set is classed as in vivo.
The mark [8] stands for this setting: charcoal after two hours, orally (later Table 3).
Setting [9] is: po, charcoal after two hours, orally (later Table 3), read-out: Antispastic activity ED50.
Setting [10] is: rat with lig. pylorus, iv (Table 1), read-out: Activity A: anti-secretive activity ED50.
The mark [11] stands for this setting: Rattus norvegicus, iv, read-out: Activity A: anti-secretive activity ED50.
The mark [12] stands for this setting: mouse, vegetable carbon test (Table 3), read-out: Anti-spastic activity ED50.
Where [13] appears, read: Rattus norvegicus, iv, compared with anti-spastic activity (Table 3), read-out: Anti-secretive activity ED50.

Where a name gives a salt, the structure may show the parent alone. Read-outs that look alike come from different tables or passages of the source.

Take `O=C([O-])[O-].[Ca+2]` [Calcium carbonate, reference compound]: the Protective activity entry in data set [1] (140mg/kg) was “inactive”.

For `O=C(N[C@@H](Cc1c[nH]c2ccccc12)C(=O)O)OCc1ccc(Br)cc1` [CR 451 - Calcium salt], the “Antispastic activity ED50” value in data set [2] (setting [8]) is 393 mg/kg. In addition, the “Antisecretive activity (dose which reduces the gastric secretion by 50%)” value amounted to 233 mg/kg in data set [3] (2.5 hrs, 150 min); 220 mg/kg in data set [3] (5 hrs, 300 min); 337 mg/kg in data set [3] (10 hrs, 600 min); 580 mg/kg in data set [3] (15 hrs, 900 min). Besides, in data set [1], the “Protective activity ED50” value is on record as 392 mg/kg/os.

The solubility is the concentration that dissolves in the medium under given conditions. Regarding `O=C(N[C@@H](Cc1c[nH]c2ccccc12)C(=O)[O-])OCc1ccc(Cl)cc1.[Na+]`, the Solubility in acetone entry in data set [4] (acetone) was “Highly soluble”. For the same compound, in data set [4], the Solubility in ethanol entry was “Highly soluble” and the Solubility in methanol entry was “Highly soluble”. In data set [4] (water), this compound gave a solubility of around 50 mg/mL.

Take `O=C(N[C@@H](Cc1c[nH]c2ccccc12)C(=O)O)OCc1ccc(Cl)cc1` [CR 449 calcium salt, N-p-chloro-carbobenzoxy-L-tryptophane calcium salt]: the “Antisecretive activity (dose which reduces the gastric secretion by 50%)” value in data set [3] (2.5 hrs, calcium salt, 150 min) is on record as 142 mg/kg; in data set [3] (5 hrs, calcium salt, 300 min), 112 mg/kg; in data set [3] (10 hrs, calcium salt, 600 min) it was 110 mg/kg; in data set [3] (15 hrs, calcium salt, 900 min), 106 mg/kg. The “Protective activity ED50” value in data set [1] (calcium salt) amounted to 121 mg/kg/os. In addition, the Solubility in ethanol result in data set [4] is listed as “soluble”. Moreover, in data set [4], the Solubility in methanol entry was “soluble”. In data set [4] (water, in words), the Solubility in water result is “Very slightly soluble”.

As for `Nc1ccc(C(=O)N[C@@H](Cc2c[nH]c3ccccc23)C(=O)O)cc1` [Ex.28 (CR504), N-p-amino-benzoyl-L-tryptophane], the ED50 in data set [5] is 205 mg/kg; in data set [2] (setting [9]), above 1000 mg/kg; in data set [3] (2.5 h, 2.5 hrs), 1080 mg/kg; in data set [3] (5 h, 5 hrs), 1090 mg/kg; in data set [3] (10 h, 10 hrs), 1490 mg/kg; in data set [3] (15 h, 15 hrs), above 2000 mg/kg. The ED50 in data set [1] is above 1500 mg/kg; in data set [7] (setting [10]) it was 960 mg/kg. In data set [6], the LD50 was determined as 1670 mg/kg.

`[OH][Al]([OH])[OH]` [Aluminium hydroxide, reference compound]: the Protective activity result in data set [1] (136mg/kg) was “inactive”.

Take `O=C(N[C@@H](Cc1c[nH]c2ccccc12)C(=O)O)OCc1ccc([N+](=O)[O-])cc1` [CR 438 - Calcium salt]: the “Antispastic activity ED50” value in data set [2] (setting [8]) is recorded as above 1000 mg/kg. Besides, the “Antisecretive activity (dose which reduces the gastric secretion by 50%)” value in data set [3] (2.5 hrs, 150 min) amounted to 810 mg/kg; in data set [3] (5 hrs, 300 min) it was 780 mg/kg; in data set [3] (10 hrs, 600 min) it was 972 mg/kg. Further, the “Protective activity ED50” value in data set [1] is on record as above 1500 mg/kg/os.

For `N#Cc1ccc(C(=O)N[C@@H](Cc2c[nH]c3ccccc23)C(=O)O)cc1` [Ex.24 (CR512), N-p-cyano-benzoyl-L-tryptophane], the figures for the ED50 in data set [5] and in data set [7] (setting [11]) were 360 mg/kg and 500 mg/kg, respectively. Also, the LD50 in data set [6] is 1450 mg/kg.

On to `O=C(N[C@H](Cc1c[nH]c2ccccc12)C(=O)O)c1ccccc1Cl` [Ex.52 (CR637), N-o-chlorobenzoyl-D-tryptophane], for which the ED50 was 390 mg/kg in data set [5] and 440 mg/kg in data set [7] (setting [10]). The LD50 in data set [6] stood at 1530 mg/kg.

`O=C(O)Cc1ccc(NC(=O)[C@H](Cc2c[nH]c3ccccc23)NC(=O)c2ccccc2)cc1` [Ex.41 (CR421), N-benzoyl-L-tryptophyl-p-aminophenylacetic acid]: the ED50 in data set [5] stood at 186 mg/kg; in data set [2] (setting [12]), 170 mg/kg; in data set [7] (setting [13]), 322 mg/kg; in data set [7] (setting [10]), 322 mg/kg. Also, the “Ratio 3/2” value in data set [2] is 2.0. Also, the LD50 in data set [6] came out at 1000 mg/kg.

As for `O=C(N[C@@H](Cc1c[nH]c2ccccc12)C(=O)O)c1ccc(F)cc1` [Ex.25 (CR506), N-p-fluoro-benzoyl-L-tryptophane], the ED50 in data set [5] turned out to be 295 mg/kg; in data set [7] (setting [11]), 223 mg/kg. Moreover, the LD50 in data set [6] was found to be 655 mg/kg.

For the compound `O=C(N[C@H](Cc1c[nH]c2ccccc12)C(=O)O)OCc1ccc(Cl)cc1` [Ex. 5 (CR630), N-p-chloro-carbobenzoxy-D-tryptophane], the ED50 amounted to 107 mg/kg in data set [5] and 142 mg/kg in data set [7] (setting [11]). Further, the LD50 in data set [6] (iv) came out at 260 mg/kg.

With `CCN(CC)CCOC(=O)[C@H](Cc1c[nH]c2ccccc12)NC(=O)c1ccc(C)cc1` [Ex.49 (CR636), Diethylaminoethylester of N-p-toluyl-L-tryptophane oxalate], the ED50 in data set [5] amounted to 120 mg/kg; in data set [7] (setting [10]), 160 mg/kg. For the same compound, in data set [6], the LD50 was 320 mg/kg.

For the compound `Cc1ccc(C(=O)N[C@@H](Cc2c[nH]c3ccccc23)C(=O)O)cc1` [CR 510 - Calcium salt], the “Antispastic activity ED50” value in data set [2] (setting [8]) stood at 725 mg/kg. Besides, the “Antisecretive activity (dose which reduces the gastric secretion by 50%)” value came to 602 mg/kg in data set [3] (2.5 hrs, 150 min); 574 mg/kg in data set [3] (5 hrs, 300 min); 521 mg/kg in data set [3] (10 hrs, 600 min); 666 mg/kg in data set [3] (15 hrs, 900 min). Besides, in data set [1], the “Protective activity ED50” value is 390 mg/kg/os.

For the compound `Cc1ccc(C(=O)N[C@H](Cc2c[nH]c3ccccc23)C(=O)O)cc1` [Ex.22 (CR556), N-p-toluyl-D-tryptophane], the results for the ED50 in data set [5] and in data set [7] (setting [11]) were 190 mg/kg and 354 mg/kg, respectively. Also, the LD50 in data set [6] is 365 mg/kg.

For the compound `O=C(N[C@@H](Cc1c[nH]c2ccccc12)C(=O)O)c1ccccc1Cl` [Ex.50 (CR617), N-o-chlorobenzoyl-L-tryptophane], the ED50 came out at 255 mg/kg in data set [5], 300 mg/kg in data set [2] (setting [12]), 299 mg/kg in data set [7] (setting [13]) and 299 mg/kg in data set [7] (setting [10]). The “Ratio 3/2” value in data set [2] is listed as 1. In addition, the LD50 in data set [6] was 1270 mg/kg.

Consider `O=C(NC(Cc1c[nH]c2ccccc12)C(=O)O)c1ccccc1Cl` (racemic) [Ex.51 (CR618), N-o-chlorobenzoyl-DL-tryptophane], for which the ED50 in data set [5] turned out to be 320 mg/kg; in data set [7] (setting [10]), 345 mg/kg. The LD50 in data set [6] turned out to be 1400 mg/kg.

Regarding `O=C(N[C@@H](Cc1c[nH]c2ccccc12)C(=O)O)OCc1ccc([N+](=O)[O-])cc1` [Ex.12 (CR438), N-p-nitro-carbobenzoxy-L-tryptophane], the ED50 was 195 mg/kg in data set [5]; 870 mg/kg in data set [2] (setting [9]); 475 mg/kg in data set [3] (2.5 h, 2.5 hrs); 560 mg/kg in data set [3] (5 h, 5 hrs); 980 mg/kg in data set [3] (10 h, 10 hrs); above 1500 mg/kg in data set [3] (15 h, 15 hrs). Further, the ED50 was determined as 990 mg/kg in data set [1] and 267 mg/kg in data set [7] (setting [10]). The LD50 in data set [6] (iv) was determined as 700 mg/kg.

For the compound `CCc1ccc(COC(=O)N[C@@H](Cc2c[nH]c3ccccc23)C(=O)O)cc1` [Ex.10 (CR500), N-p-ethyl-carbobenzoxy-L-tryptophane], the ED50 is 117 mg/kg in data set [5] and 142 mg/kg in data set [7] (setting [11]). Moreover, the LD50 in data set [6] (iv) turned out to be 158 mg/kg.

`COC(=O)Cc1ccc(NC(=O)[C@H](Cc2c[nH]c3ccccc23)NC(=O)OCc2ccccc2)cc1` [Ex.38 (CR417), Methyl-N-carbobenzoxy-L-tryptophyl-p-aminophenylacetate]: the ED50 in data set [5] and in data set [7] (setting [10]) was 300 mg/kg in each case. In data set [6] (iv), the LD50 was determined as 1000 mg/kg.

As to `O=C(N[C@@H](Cc1c[nH]c2ccccc12)C(=O)O)OCc1ccccc1Cl` [Ex. 3 (CR460), N-o-chloro-carbobenzoxy-L-tryptophane], the ED50 in data set [5] is 267 mg/kg; in data set [2] (setting [12]), 58 mg/kg; in data set [7] (setting [13]), 118 mg/kg; in data set [7] (setting [10]), 118 mg/kg. The “Ratio 3/2” value in data set [2] is given as 2.0. Moreover, in data set [6] (iv), the LD50 turned out to be 640 mg/kg.

For `O=C(N[C@@H](Cc1c[nH]c2ccccc12)C(=O)O)OCc1ccc(I)cc1` [Ex. 7 (CR490), N-p-iodo-carbobenzoxy-L-tryptophane], the ED50 is 94 mg/kg in data set [5] and 75 mg/kg in data set [7] (setting [11]). Besides, the LD50 in data set [6] (iv) worked out at 166 mg/kg.
